Laboratory results: publication PMC5962642, “Dynamic imaging of adaptive stress response pathway activation for prediction of drug induced liver injury” (Archives of Toxicology, 2018)
“Also recorded” adds a separate entry of the source.

Legend:
[1] = system: CHOP-GFP (ER stress/UPR response); assay: HepG2 CHOP-GFP BAC reporter, live cell confocal imaging (ER stress/UPR); type: cell-based, Human; conditions: HepG2 BAC-GFP, 24 h live imaging, 1-100 C-max
[2] = system: ICAM1-GFP (NF-κB-mediated inflammatory signaling); assay: HepG2 ICAM1-GFP BAC reporter, TNFα-induced, live cell confocal imaging; type: cell-based, Human; conditions: for modulation of TNFα-induced ICAM1-GFP response: HepG2 BAC-GFP, 8 h compound then TNFα 10 ng/mL, 24 h live imaging, 1-100 C-max
Description: Human hepatoma HepG2 cells were acquired from ATCC (clone HB8065). HepG2 Srxn1, DDIT3 (CHOP), CDKN1A (p21) and ICAM1 BAC GFP reporter cell lines were previously established and characterized (Wink et al. [2017]). […] The cell lines were used between passage 5 and 25. For live cell imaging, the cells were seeded in Greiner black μ-clear 384 wells plates, at 8000 cells per well. […] All imaging was similar as previously described^5. […] Directly after TNFα treatment the live cell imaging was started. Quantitative image analysis was performed with CellProfiler version 2.1.1 ([…] et al. [2011]) with an in house developed CellProfiler module implementing the watershed masked algorithm for segmentation (Yan and Verbeek [2012]; Wink et al. [2017]). Image analysis results were stored as HDF5 files. Data analysis, quality control and graphics were performed using the in house developed R package h5CellProfiler (manuscript in preparation). For each reporter hourly intensity levels of the GFP signal, the nuclear Hoechst33342 intensity levels and at 24 h the PI staining were measured at the single cell level. In addition, cell numbers, nuclei size and cell motility were measured. GFP intensity cell population means were calculated. In addition, for each plate the cell population mean GFP intensity of the DMSO treated cells was calculated to determine background control values. Per plate, the single cells that had values above the 2X mean, 3X mean were counted resulting in GFP positive fraction measures. For ICAM1, the background control values consisted of DMSO conditions treated with TNFα, and the single cells with values above, as well as below background values were counted. […] Linear regression was applied with respect to time to quantify treatment effects on a plate-to-plate basis to quantify cell speed, nuclear size, Hoechst nuclear intensity and cell numbers. […] The maximum values over time of the scaled intensity levels and positive GFP fractions were selected for the concentration response curves. These values were fit to a four parameter log-logistic model using the drc package (Ritz et al. [2015]). BMC values were calculated as the concentration at which + 0.25 (and - 0.25 for ICAM1) absolute increase from the initial response values occurred (Fig. 5a).

[3] = C-max obtained from FDA or literature; ref per compound (FDA, Dailymed, Xu, O’Brien, Khetani, Regenthal, Gustafsson, Dawson, Ogutu, Patel, Schmidt, Ravic, Keisu, Hu, Wagner); cited from earlier work
[4] = ref Chen et al. [2016], cited from earlier work; for DILI con. (DILI-concern labeling): FDA DILI labeling; for Hepa. (hepatotoxicity class): FDA labeling in eight classes of hepatotoxicity
[5] = ref livertox.nih.gov database; cited from earlier work
[6] = system: p21-GFP (p53-mediated DNA damage-related response); assay: HepG2 p21-GFP BAC reporter, live cell confocal imaging (DNA damage); type: cell-based, Human; conditions: 24 h live imaging, 1-100 C-max
Description: (§1) Human hepatoma HepG2 cells were acquired from ATCC (clone HB8065). HepG2 Srxn1, DDIT3 (CHOP), CDKN1A (p21) and ICAM1 BAC GFP reporter cell lines were previously established and characterized (Wink et al. [2017]). HepG2 BAC GFP reporters were maintained and exposed to drugs in DMEM high glucose supplemented with 10% (v/v) FBS, 25 U/mL penicillin and 25 µg/mL streptomycin. The cell lines were used between passage 5 and 25. For live cell imaging, the cells were seeded in Greiner black µ-clear 384 wells plates, at 8000 cells per well.
Accumulation of GFP levels, propodium iodide (PI) and Hoechst staining was monitored using a Nikon TiE2000 confocal laser microscope (lasers 540, 488 and 408 nm), equipped with an automated stage and perfect focus system at 37 °C with humidified atmosphere and 5% CO2/air mixture. All imaging was similar as previously described^5. […]
Quantitative image analysis was performed with CellProfiler version 2.1.1 (Kamentsky et al. [2011]) with an in house developed CellProfiler module implementing the watershed masked algorithm for segmentation (Yan and Verbeek [2012]; Wink et al. [2017]). […] For each reporter hourly intensity levels of the GFP signal, the nuclear Hoechst33342 intensity levels and at 24 h the PI staining were measured at the single cell level. In addition, cell numbers, nuclei size and cell motility were measured.
GFP intensity cell population means were calculated. In addition, for each plate the cell population mean GFP intensity of the DMSO treated cells was calculated to determine background control values. Per plate, the single cells that had values above the 2X mean, 3X mean were counted resulting in GFP positive fraction measures. For ICAM1, the background control values consisted of DMSO conditions treated with TNFα, and the single cells with values above, as well as below background values were counted. […]

[7] = system: Srxn1-GFP (oxidative stress); assay: HepG2 Srxn1-GFP BAC reporter, live cell confocal imaging (oxidative stress); type: cell-based, Human; conditions: HepG2 BAC-GFP, 24 h live imaging, 1-100 C-max
Description: as §1
Accumulation of GFP levels, propodium iodide (PI) and Hoechst staining was monitored using a Nikon TiE2000 confocal laser microscope (lasers 540, 488 and 408 nm), equipped with an automated stage and perfect focus system at 37 °C with humidified atmosphere and 5% CO2/air mixture. All imaging was similar as previously described^5. Each 384-well plate contained one reporter cell line, which was exposed to all the compounds used in the screen at one certain concentration (1, 5, 10, 50 or 100 Cmax); for each concentration at least two replicates were imaged per reporter cell line. For the ICAM1-GFP reporter experiments, cells were first exposed for 8 h to compound only; next, TNFα was added to all wells, up to a final concentration of 10 ng/mL. Directly after TNFα treatment the live cell imaging was started.
Quantitative image analysis was performed with CellProfiler version 2.1.1 (Kamentsky et al. [2011]) with an in house developed CellProfiler module implementing the watershed masked algorithm for segmentation (Yan and Verbeek [2012]; Wink et al. [2017]). Image analysis results were stored as HDF5 files. Data analysis, quality control and graphics were performed using the in house developed R package h5CellProfiler (manuscript in preparation). For each reporter hourly intensity levels of the GFP signal, the nuclear Hoechst33342 intensity levels and at 24 h the PI staining were measured at the single cell level. In addition, cell numbers, nuclei size and cell motility were measured.
GFP intensity cell population means were calculated. In addition, for each plate the cell population mean GFP intensity of the DMSO treated cells was calculated to determine background control values. Per plate, the single cells that had values above the 2X mean, 3X mean were counted resulting in GFP positive fraction measures. For ICAM1, the background control values consisted of DMSO conditions treated with TNFα, and the single cells with values above, as well as below background values were counted. Due to the non-symmetric distribution of ICAM1 cell population GFP intensities, the interquartile range (IQR) was used to count the number of cells 1.5, 2 and 3 times above and below the TNFα IQR control values (Supplemental Fig. 1).
The maximum values over time of the scaled intensity levels and positive GFP fractions were selected for the concentration response curves. These values were fit to a four parameter log-logistic model using the drc package (Ritz et al. [2015]). BMC values were calculated as the concentration at which + 0.25 (and − 0.25 for ICAM1) absolute increase from the initial response values occurred (Fig. 5a).

Structure (SMILES)	CHOP-GFP reporter response [1]	modulation of TNFα-induced ICAM1-GFP response [2]	Cmax [3]	DILI con. (DILI-concern labeling) [4]	Hepa. (hepatotoxicity class) [4]	Metab (metabolic potential) [5]	p21-GFP reporter response [6]	Srxn1-GFP reporter response [7]	Srxn1-GFP reporter response ([7]; listed as mercaptopurine)	modulation of TNFα-induced ICAM1-GFP response ([2]; listed as mercaptopurine)	point-of-departure (PoD) for ICAM-GFP response relative to onset of SRXN1-GFP response ([2]; peak response, concentration series 1-100 C-max)
CCc1nn(CCCN2CCN(c3cccc(Cl)c3)CC2)c(=O)n1CCOc1ccccc1 [Nefazodone]	CHOP-GFP activation	strong ICAM1-GFP suppression	3.95 µM	Most-DC	8	YES	–	–	–	–	–
COc1cc([C@@H]2c3cc4c(cc3[C@@H](O[C@@H]3O[C@@H]5CO[C@@H](C)O[C@H]5[C@H](O)[C@H]3O)[C@H]3COC(=O)[C@H]23)OCO4)cc(OC)c1O [Etoposide]	–	–	–	–	–	YES	strong inducers	–	–	–	–
O=C1CN(/N=C/c2ccc([N+](=O)[O-])o2)C(=O)N1 [Nitrofurantoin]	CHOP-GFP activation	strong ICAM1-GFP suppression	6 µM	Most-DC	8	YES	–	–	–	–	–
C[C@](N)(Cc1ccc(O)c(O)c1)C(=O)O [Methyldopa]	–	inhibited	18.9 µM	Most-DC	8	YES	increased	increased	–	–	–
Sc1ncnc2nc[nH]c12 [Mercaptopurine]	increased	increased	0.48 µM	Most-DC	8	YES	increased	increased	relatively strong activation; also recorded: mild Srxn1-GFP and ICAM1-GFP activation	relatively strong activation; also recorded: mild Srxn1-GFP and ICAM1-GFP activation	at a lower C-max
